The results in this text go back to ChEMBL document CHEMBL1139598, “A discriminant model constructed by the support vector machine method for HERG potassium channel inhibitors” (Bioorg Med Chem Lett, 2005).

Chain of Voltage-gated inwardly rectifying potassium channel KCNH2 (Q12809 whole entry): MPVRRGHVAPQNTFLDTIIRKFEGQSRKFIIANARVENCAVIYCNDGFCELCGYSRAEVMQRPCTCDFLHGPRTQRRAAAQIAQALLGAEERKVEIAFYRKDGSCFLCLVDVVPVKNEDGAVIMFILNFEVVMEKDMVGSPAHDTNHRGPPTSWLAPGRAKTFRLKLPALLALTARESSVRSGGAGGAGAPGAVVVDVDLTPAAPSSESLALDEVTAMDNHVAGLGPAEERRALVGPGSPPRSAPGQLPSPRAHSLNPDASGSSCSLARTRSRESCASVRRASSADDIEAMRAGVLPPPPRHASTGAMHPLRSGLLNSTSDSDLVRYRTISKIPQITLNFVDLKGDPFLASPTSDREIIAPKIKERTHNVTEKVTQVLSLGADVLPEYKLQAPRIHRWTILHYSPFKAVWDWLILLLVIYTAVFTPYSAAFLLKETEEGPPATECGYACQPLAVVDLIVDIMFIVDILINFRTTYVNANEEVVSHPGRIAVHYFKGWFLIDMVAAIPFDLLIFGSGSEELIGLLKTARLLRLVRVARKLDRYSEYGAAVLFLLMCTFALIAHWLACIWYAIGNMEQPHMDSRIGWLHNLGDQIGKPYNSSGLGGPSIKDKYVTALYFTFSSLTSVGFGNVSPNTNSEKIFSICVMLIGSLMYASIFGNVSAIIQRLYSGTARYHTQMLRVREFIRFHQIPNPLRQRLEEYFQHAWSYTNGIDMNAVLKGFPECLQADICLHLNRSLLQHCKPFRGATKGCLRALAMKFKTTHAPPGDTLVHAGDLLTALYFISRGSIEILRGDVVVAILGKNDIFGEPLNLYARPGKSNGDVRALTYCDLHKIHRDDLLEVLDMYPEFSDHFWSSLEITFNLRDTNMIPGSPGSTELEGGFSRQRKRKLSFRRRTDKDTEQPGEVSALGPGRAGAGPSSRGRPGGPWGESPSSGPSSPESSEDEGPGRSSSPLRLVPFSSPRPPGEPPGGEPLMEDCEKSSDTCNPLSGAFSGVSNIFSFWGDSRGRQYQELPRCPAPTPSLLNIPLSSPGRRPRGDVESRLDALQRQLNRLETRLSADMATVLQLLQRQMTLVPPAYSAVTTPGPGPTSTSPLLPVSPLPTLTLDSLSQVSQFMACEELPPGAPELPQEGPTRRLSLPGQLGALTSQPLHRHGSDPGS

The assay concerns the target Voltage-gated inwardly rectifying potassium channel KCNH2 (Homo sapiens, UniProt Q12809). Put plainly: Inhibitory concentration against potassium channel HERG.
The IC50 is the midpoint of a concentration-inhibition curve. `COc1ccc2c3c1O[C@H]1[C@@H](O)C=C[C@H]4[C@@H](C2)N(C)CC[C@@]341` [CODEINE]: inhibition was half-maximal at 302 µM (IC50).
The figure for `CC[C@H](OC(C)=O)C(C[C@H](C)N(C)C)(c1ccccc1)c1ccccc1` [LEVOMETHADYL ACETATE] is 2.19 µM; for `CCC(=O)C(CC(C)N(C)C)(c1ccccc1)c1ccccc1` (centres undefined) [METHADONE] it is 9.77 µM.
`COc1cc2nc(N3CCN(C(=O)c4ccco4)CC3)nc(N)c2cc1OC` [PRAZOSIN] gave an IC50 of 1.58 µM.
